# Measured values as given in US8648066B2 (Exelixis, Inc., priority 2009, dated 2014).
# How the values were obtained:
# [1] = target: PI3Kα (Homo sapiens, UniProt P42336); assay: PI3K biochemical assay (luciferase-luciferin ATP consumption); details: 1.5 nM enzyme, 1 μM ATP, 10 μM PIP2; read-out: IC50 for PI3Kα in this assay
# Description: PI3Kα activity is measured as the percent of ATP consumed following the kinase reaction using luciferase-luciferin-coupled chemiluminescence. Reactions were conducted in 384-well white, medium binding microtiter plates (Greiner). Kinase reactions were initiated by combining test compounds, ATP, substrate (PIP2), and kinase in a 20 μL volume in a buffer solution. The standard PI3Kalpha assay buffer is composed 50 mM Tris, pH 7.5, 1 mM EGTA, 10 mM MgCl2, 1 mM DTT and 0.03% CHAPS. The standard assay concentrations for enzyme, ATP, and substrate are 1.5 nM, 1 μM, and 10 μM, respectively. The reaction mixture was incubated at ambient temperature for approximately 2 h. Following the kinase reaction, a 10 μL aliquot of luciferase-luciferin mix (Promega Kinase-Glo) was added and the chemiluminescence signal measured using a Victor2 plate reader (Perkin Elmer). Total ATP consumption was limited to 40-60% and IC50 values of control compounds correlate well with literature references. Substituting PI3Kα with PI3Kβ, PI3Kγ, or PI3Kδ, the inhibitory activity of the compounds for the other isoforms of I3K were measured.
# [2] = target: mTOR/GbL/Raptor (mTORC1) (Homo sapiens, UniProt P42345); assay: mTOR/GbL/Raptor (mTORC1) ELISA assay; assay type: biochemical; details: phosphorylation of 4E-BP1; 0.2 nM mTORC1, 10 μM ATP; read-out: IC50 in this assay (mTORC1 ELISA)
# Procedure, shortened: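 ELISA read-out: phospho-4E-BP1 captured on Ni-chelate plates and detected with anti-phospho antibody plus HRP-anti-IgG luminescence. The kinase step ran 120 min at ambient temperature with 0.2 nM human mTORC1, 10 µM ATP, 50 nM His-4E-BP1, 10 mM MnCl2, pH 7.2 HEPES.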
# Sequence of PI3Kα (P42336 whole entry, species assumed): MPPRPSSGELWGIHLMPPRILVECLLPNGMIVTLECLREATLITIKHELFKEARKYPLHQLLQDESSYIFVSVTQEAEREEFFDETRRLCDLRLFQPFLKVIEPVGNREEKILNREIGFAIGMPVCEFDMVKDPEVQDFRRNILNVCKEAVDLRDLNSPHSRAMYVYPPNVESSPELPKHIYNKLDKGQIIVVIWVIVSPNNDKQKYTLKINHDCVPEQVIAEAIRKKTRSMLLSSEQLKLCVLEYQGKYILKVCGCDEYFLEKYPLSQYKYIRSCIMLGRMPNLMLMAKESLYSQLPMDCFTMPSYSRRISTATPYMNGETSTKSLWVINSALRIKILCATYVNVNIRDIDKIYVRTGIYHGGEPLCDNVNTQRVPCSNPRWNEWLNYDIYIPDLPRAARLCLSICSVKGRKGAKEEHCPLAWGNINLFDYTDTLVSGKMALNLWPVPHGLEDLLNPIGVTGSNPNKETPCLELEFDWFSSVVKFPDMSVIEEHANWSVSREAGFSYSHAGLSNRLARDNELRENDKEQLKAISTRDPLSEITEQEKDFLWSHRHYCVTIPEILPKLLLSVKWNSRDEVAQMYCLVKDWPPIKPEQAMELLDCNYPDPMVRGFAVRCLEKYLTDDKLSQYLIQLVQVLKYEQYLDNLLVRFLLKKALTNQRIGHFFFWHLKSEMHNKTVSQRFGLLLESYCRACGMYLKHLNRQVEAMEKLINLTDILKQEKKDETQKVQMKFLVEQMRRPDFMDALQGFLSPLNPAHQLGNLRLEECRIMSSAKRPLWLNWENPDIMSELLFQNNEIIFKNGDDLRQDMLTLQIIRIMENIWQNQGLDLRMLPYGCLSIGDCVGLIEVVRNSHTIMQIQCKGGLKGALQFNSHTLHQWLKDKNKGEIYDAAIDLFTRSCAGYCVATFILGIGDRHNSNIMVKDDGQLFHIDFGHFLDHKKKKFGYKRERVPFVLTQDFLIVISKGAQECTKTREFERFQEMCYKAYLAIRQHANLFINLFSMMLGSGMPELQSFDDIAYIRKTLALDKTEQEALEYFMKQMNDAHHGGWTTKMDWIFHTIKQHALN
# Sequence of PI3Kα (P27986 whole entry partner, species assumed): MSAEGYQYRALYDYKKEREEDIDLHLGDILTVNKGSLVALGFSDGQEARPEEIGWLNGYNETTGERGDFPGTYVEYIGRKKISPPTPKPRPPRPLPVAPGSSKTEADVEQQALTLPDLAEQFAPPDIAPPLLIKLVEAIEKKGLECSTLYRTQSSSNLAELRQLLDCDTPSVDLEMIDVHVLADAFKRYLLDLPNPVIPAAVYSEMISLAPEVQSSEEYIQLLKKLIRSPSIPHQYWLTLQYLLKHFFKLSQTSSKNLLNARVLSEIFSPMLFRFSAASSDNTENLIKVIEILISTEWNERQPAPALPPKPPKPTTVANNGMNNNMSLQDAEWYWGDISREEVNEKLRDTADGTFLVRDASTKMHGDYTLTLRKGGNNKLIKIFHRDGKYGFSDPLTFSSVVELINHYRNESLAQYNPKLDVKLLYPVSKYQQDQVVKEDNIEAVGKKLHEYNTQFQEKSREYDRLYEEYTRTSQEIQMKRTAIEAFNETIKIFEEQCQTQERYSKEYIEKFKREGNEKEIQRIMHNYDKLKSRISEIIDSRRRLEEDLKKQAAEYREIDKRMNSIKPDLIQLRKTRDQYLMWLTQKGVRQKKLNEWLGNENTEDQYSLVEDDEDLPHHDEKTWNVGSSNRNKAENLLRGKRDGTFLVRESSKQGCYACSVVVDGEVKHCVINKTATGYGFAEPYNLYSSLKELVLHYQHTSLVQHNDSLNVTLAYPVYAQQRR
Compound,IC50 [1],IC50 [2]
"CSc1nc2c(c(N3CCOc4ccc(-c5ccc6nc(C)[nH]c6c5)cc4C3)n1)CC(C)C2 (stereo not shown) [Example 71, 7-(2-methyl-1H-benzimidazol-6-yl)-4-[6-methyl-2-(methylthio)-6,7-dihydro-5H-cyclopenta[d]pyrimidin-4-yl]-2,3,4,5-tetrahydro-1,4-benzoxazepine]",1 to 2 µM,1 to 2 µM
"Cc1nc2ccc(-c3ccc4c(c3)CN(c3ncnc5c3CSC5)CCO4)cc2[nH]1 [Example 75, 4-(5,7-dihydrothieno[3,4-d]pyrimidin-4-yl)-7-(2-methyl-1H-benzimidazol-6-yl)-2,3,4,5-tetrahydro-1,4-benzoxazepine]",1 to 2 µM,0.25 to 1 µM
"Cc1nccc(N2CCOc3ccc(-c4cnc5nc(C)[nH]c5c4)cc3C2)n1 [Example 85, 7-(2-methyl-1H-imidazo[4,5-b]pyridin-6-yl)-4-(2-methylpyrimidin-4-yl)-2,3,4,5-tetrahydro-1,4-benzoxazepine]",1 to 2 µM,0.05 to 0.25 µM
"Cc1nc2ccc(-c3ccc4c(c3)CN(c3ncnc5c3CN(C3CC3)C5)CCO4)cc2[nH]1 [Example 87, 4-(6-cyclopropyl-6,7-dihydro-5H-pyrrolo[3,4-d]pyrimidin-4-yl)-7-(2-methyl-1H-benzimidazol-6-yl)-2,3,4,5-tetrahydro-1,4-benzoxazepine]",≥ 2 µM,0.25 to 1 µM
"Cc1ccc(N2Cc3ncnc(N4CCOc5ccc(-c6ccc7nc(C)[nH]c7c6)cc5C4)c3C2)cc1 [Example 88, 7-(2-methyl-1H-benzimidazol-6-yl)-4-[6-(4-methylphenyl)-6,7-dihydro-5H-pyrrolo[3,4-d]pyrimidin-4-yl]-2,3,4,5-tetrahydro-1,4-benzoxazepine]",≥ 2 µM,1 to 2 µM
"Cc1nc2ccc(-c3ccc4c(c3)CN(c3ccccn3)CCO4)cc2[nH]1 [Example 104, 7-(2-methyl-1H-benzimidazol-6-yl)-4-pyridin-2-yl-2,3,4,5-tetrahydro-1,4-benzoxazepine]",≥ 2 µM,≥ 2 µM
"Cc1nc2ccc(-c3ccc4c(c3)CN(c3ncccn3)CCO4)cc2[nH]1 [Example 106, 7-(2-methyl-1H-benzimidazol-6-yl)-4-pyrimidin-2-yl-2,3,4,5-tetrahydro-1,4-benzoxazepine]",1 to 2 µM,1 to 2 µM
"COC(=O)Nc1nc2cc(-c3ccc4c(c3)CN(c3ccnc5ccccc35)CCO4)ccc2n1C [Example 115, methyl [1-methyl-5-(4-quinolin-4-yl-2,3,4,5-tetrahydro-1,4-benzoxazepin-7-yl)-1H-benzimidazol-2-yl]carbamate]",1 to 2 µM,≥ 2 µM
"CCn1cnc2cc(-c3ccc4c(c3)CN(c3ccnc5ccccc35)CCO4)ccc21 [Example 127, 7-(1-ethyl-1H-benzimidazol-5-yl)-4-quinolin-4-yl-2,3,4,5-tetrahydro-1,4-benzoxazepine]",≥ 2 µM,0.25 to 1 µM
"Cc1nc2cc(-c3ccc4c(c3)CN(c3ccnc5ccccc35)CCO4)ccc2s1 [Example 128, 7-(2-methyl-1,3-benzothiazol-5-yl)-4-quinolin-4-yl-2,3,4,5-tetrahydro-1,4-benzoxazepine]",≥ 2 µM,≥ 2 µM
"Cc1ncnc(N2CCOc3ccc(-c4ccc(C(=O)N[C@H]5CCNC5)cc4)cc3C2)c1Cc1ccc(F)cc1 [Example 173, 4-(4-{5-[(4-fluorophenyl)methyl]-6-methylpyrimidin-4-yl}-2,3,4,5-tetrahydro-1,4-benzoxazepin-7-yl)-N-[(3S)-pyrrolidin-3-yl]benzamide]",≥ 2 µM,0.25 to 1 µM
"c1ccc2c(N3CCOc4ccc(-c5ccc6nc(C7CCCC7)[nH]c6c5)cc4C3)ccnc2c1 [Example 198, 7-(2-cyclopentyl-1H-benzimidazol-6-yl)-4-quinolin-4-yl-2,3,4,5-tetrahydro-1,4-benzoxazepine]",≥ 2 µM,≥ 2 µM
"c1ccc2c(N3CCOc4ccc(-c5ccsc5)cc4C3)ccnc2c1 [Example 204, 4-quinolin-4-yl-7-(3-thienyl)-2,3,4,5-tetrahydro-1,4-benzoxazepine]",1 to 2 µM,≥ 2 µM
"c1ccc2ncc(-c3ccc4c(c3)CN(c3ccnc5ccccc35)CCO4)cc2c1 [Example 205, 7-quinolin-3-yl-4-quinolin-4-yl-2,3,4,5-tetrahydro-1,4-benzoxazepine]",1 to 2 µM,1 to 2 µM
"c1ccc2sc(-c3ccc4c(c3)CN(c3ccnc5ccccc35)CCO4)cc2c1 [Example 206, 7-(1-benzothien-2-yl)-4-quinolin-4-yl-2,3,4,5-tetrahydro-1,4-benzoxazepine]",≥ 2 µM,1 to 2 µM
"OCc1ncc(-c2ccc(-c3ccc4c(c3)CN(c3ncnc5cccnc35)CCO4)cc2)[nH]1 [Example 212, {5-[4-(4-pyrido[3,2-d]pyrimidin-4-yl-2,3,4,5-tetrahydro-1,4-benzoxazepin-7-yl)phenyl]-1H-imidazol-2-yl}methanol]",≥ 2 µM,0.25 to 1 µM
"CCn1ccc2cc(-c3ccc4c(c3)CN(c3ccnc5ccccc35)CCO4)cnc21 [Example 223, 7-(1-ethyl-1H-pyrrolo[2,3-b]pyridin-5-yl)-4-quinolin-4-yl-2,3,4,5-tetrahydro-1,4-benzoxazepine]",≥ 2 µM,≥ 2 µM
"[H]/N=c1\ncc(-c2ccc3c(c2)CN(c2ncnc4c2CC(C)(C)CC4)CCO3)cn1O [Example 231, (2E)-5-[4-(6,6-dimethyl-5,6,7,8-tetrahydroquinazolin-4-yl)-2,3,4,5-tetrahydro-1,4-benzoxazepin-7-yl]-2-iminopyrimidin-1(2H)-ol]",≥ 2 µM,1 to 2 µM
"c1ccc(-c2nc(N3CCOc4ccc(-c5ccc6nc[nH]c6c5)cc4C3)c3ccccc3n2)cc1 [Example 232, 7-(1H-benzimidazol-6-yl)-4-(2-phenylquinazolin-4-yl)-2,3,4,5-tetrahydro-1,4-benzoxazepine]",1 to 2 µM,≥ 2 µM
"Cc1nc2ccc(-c3ccc4c(c3)CN(c3ccnc(N)c3)CCO4)cc2[nH]1 [Example 262, 4-[7-(2-methyl-1H-benzimidazol-6-yl)-2,3-dihydro-1,4-benzoxazepin-4(5H)-yl]pyridin-2-amine]",≥ 2 µM,≥ 2 µM
"CCNc1nc2ccc(-c3ccc4c(c3)CN(c3nc(C)nc5cc(OCC)ccc35)CCO4)cc2[nH]1 [Example 288, N-ethyl-6-{4-[7-(ethyloxy)-2-methylquinazolin-4-yl]-2,3,4,5-tetrahydro-1,4-benzoxazepin-7-yl}-1H-benzimidazol-2-amine]",1 to 2 µM,≥ 2 µM
"COc1ccc2c(N3CCOc4ccc(-c5ccc6ncsc6c5)cc4C3)nc(C)nc2c1 [Example 294, 7-(1,3-benzothiazol-6-yl)-4-[2-methyl-7-(methyloxy)quinazolin-4-yl]-2,3,4,5-tetrahydro-1,4-benzoxazepine]",1 to 2 µM,≥ 2 µM
COc1cc(-c2ccc3c(c2)CN(c2nc(CN(C)C)nc4c2CC(C)(C)CC4)CCO3)ccc1Cl [Example 326],1 to 2 µM,0.25 to 1 µM
"COc1cccc(-c2ccc3c(c2)CN(c2nc(CN(C)C)nc4c2CC(C)(C)CC4)CCO3)c1 [Example 328, 1-(6,6-dimethyl-4-{7-[3-(methyloxy)phenyl]-2,3-dihydro-1,4-benzoxazepin-4(5H)-yl]-5,6,7,8-tetrahydroquinazolin-2-yl)-N,N-dimethylmethanamine]",1 to 2 µM,≥ 2 µM
"COc1ccc(-c2ccc3c(c2)CN(c2nc(CN(C)C)nc4c2CC(C)(C)CC4)CCO3)cc1 [Example 329, 1-(6,6-dimethyl-4-{7-[4-(methyloxy)phenyl]-2,3-dihydro-1,4-benzoxazepin-4(5H)-yl}-5,6,7,8-tetrahydroquinazolin-2-yl)-N,N-dimethylmethanamine]",1 to 2 µM,≥ 2 µM
Cc1nc2ccc(-c3ccc4c(c3)CN(c3cc(C(C)(C)O)nc5c3CC(C)(C)CC5)CCO4)cc2[nH]1 [Example 362],0.05 to 0.25 µM,0.05 to 0.25 µM
"CN(C)Cc1nc2c(c(N3CCOc4ccc(-c5cccc(C(N)=O)c5)cc4C3)n1)CC(C)(C)CC2 [Example 433, 3-(4-{2-[(dimethylamino)methyl]-6,6-dimethyl-5,6,7,8-tetrahydroquinazolin-4-yl}-2,3,4,5-tetrahydro-1,4-benzoxazepin-7-yl)benzamide]",1 to 2 µM,≥ 2 µM
"Cc1nc2c(-c3ccc4c(c3)CN(c3ncnc5c3CC(C)(C)CC5)CCO4)cncc2[nH]1 [Example 475, 4-(6,6-dimethyl-5,6,7,8-tetrahydroquinazolin-4-yl)-7-(2-methyl-3H-imidazo[4,5-c]pyridin-7-yl)-2,3,4,5-tetrahydro-1,4-benzoxazepine]",≥ 2 µM,≥ 2 µM
"Cc1c(N2CCOc3ccc(-c4cnc5nc(C6CC6)[nH]c5c4)cc3C2)ncnc1N(C)[C@H](C)c1ccccc1 [Example 535, 6-[7-(2-cyclopropyl-1H-imidazo[4,5-b]pyridin-6-yl)-2,3-dihydro-1,4-benzoxazepin-4(5H)-yl]-N,5-dimethyl-N-[(1R)-1-phenylethyl]pyrimidin-4-amine]",1 to 2 µM,0.25 to 1 µM
